The record followed here is US12286425B2, “Herbicidally active bicyclic benzamides” (Bayer Aktiengesellschaft, priority 2018, dated 2025).

Format in all cases: in vivo
One test has as its system AVEFA. Kind of test: Pre-emergence herbicidal action (PE), greenhouse pot test, AVEFA. The following applies: pre-emergence (PE); application rate 320; scored visually after about 3 weeks vs untreated controls; 100% = plants have died, 0% = like control plants. From the text: (§1) 1. Pre-emergence herbicidal action and crop plant compatibility (pre-emergence, PE) Seeds of monocotyledonous and dicotyledonous weed plants and crop plants are placed in plastic or organic planting pots and covered with soil. The compounds of the invention, formulated in the form of wettable powders (WP) or as emulsion concentrates (EC), are then applied onto the surface of the covering soil as aqueous suspension or emulsion with addition of 0.5% additive at a water application rate of […] (converted). After the treatment, the pots are placed in a greenhouse and kept under good growth conditions for the trial plants. After about 3 weeks, the effect of the preparations is scored visually in comparison with untreated controls as percentages. The tables below show the herbicidal activity of numerous compounds according to the invention against important harmful plants. For example, 100% activity=the plants have died, 0% activity=like control plants.

The subject of the next test is SETVI. Kind of test: Pre-emergence herbicidal action (PE), greenhouse pot test, SETVI. The settings on record: pre-emergence (PE).
Source text: as §1

Test [1] concerns monocotyledonous and dicotyledonous weeds and crop plants. Kind of test: Post-emergence herbicidal action and crop plant compatibility (PO), including comparison with A-117. The settings on record: post-emergence (PO); for Herbicidal activity ABUTH: Abutilon theophrasti; for Herbicidal activity AMARE: Amaranthus retroflexus; for Herbicidal activity CYPES: Cyperus esculentus; for Herbicidal activity ECHCG: Echinochloa crus-galli; for Herbicidal activity PHBPU: Ipomoea purpurea; for Herbicidal activity SETVI: Setaria viridis; for Herbicidal activity STEME: Stellaria media; for Herbicidal activity VIOTR: Viola tricolor; for herbicidal activity AVEFA: Avena fatua; for Herbicidal activity POLCO: Polygonum convolvulus; for Herbicidal activity VERPE: Veronica persica. The procedure: 2. Post-emergence herbicidal action and crop plant compatibility (post-emergence, PO) Seeds of monocotyledonous and dicotyledonous weeds and crop plants are placed in sandy loam in plastic or organic planting pots, covered with soil and cultivated in a greenhouse under controlled growth conditions. 2 to 3 weeks after sowing, the test plants are treated at the one-leaf stage. The compounds of the invention, formulated in the form of wettable powders (WP) or as emulsion concentrates (EC), are then sprayed onto the green parts of the plants as aqueous suspension or emulsion with addition of 0.5% additive at a water application rate of […] (converted). After the test plants had been kept in the greenhouse under optimum growth conditions for about 3 weeks, the activity of the preparations is rated visually in comparison to untreated controls. The tables below show the herbicidal activity of numerous compounds according to the invention against important harmful plants. For example, 100% activity=the plants have died, 0% activity=like control plants.
(§2) In a comparative experiment, by way of example, the herbicidal activity of compound No. 2-13 according to the invention was compared to that of compound No. A-117 known from WO 2013/076315 A2.

The subject of test [2] is monocotyledonous and dicotyledonous weed plants and crop plants. The experiment in a line: Pre-emergence herbicidal action and crop plant compatibility (PE), other species and comparison with A-117. The settings on record: pre-emergence (PE); for Herbicidal activity ABUTH: Abutilon theophrasti; for Herbicidal activity AMARE: Amaranthus retroflexus; for Herbicidal activity CYPES: Cyperus esculentus; for Herbicidal activity ECHCG: Echinochloa crus-galli; for Herbicidal activity MATIN: Matricaria inodora; for Herbicidal activity POLCO: Polygonum convolvulus; for Herbicidal activity STEME: Stellaria media; for Herbicidal activity VIOTR: Viola tricolor.
Source text: as §1, §2

Setting [3] is: Setaria viridis, application rate 320, scored visually after about 3 weeks.
Where [4] appears, read: application rate 80, rated visually after about 3 weeks.
The mark [5] stands for this setting: application rate 320, scored visually after about 3 weeks.
Setting [6] is: application rate 20, rated visually after about 3 weeks.
Setting [7] is: application rate 80, scored visually after about 3 weeks.

Regarding `CCn1nnnc1NC(=O)c1ccc(C(F)(F)F)c2c1OCCS2(=O)=O` [Example 3-19], the “herbicidal activity AVEFA” value in the test on AVEFA worked out at 90%. Moreover, the “Herbicidal activity SETVI” value in the test on SETVI (setting [3]) came to 100%. Moreover, in test [1] (setting [4]), the “Herbicidal activity ABUTH” value is 90%, the “Herbicidal activity AMARE” value came to 90%, the “Herbicidal activity CYPES” value came out at 80% and the “Herbicidal activity ECHCG” value is reported as 100%. Besides, in test [1] (setting [4]), the “Herbicidal activity PHBPU” value is reported as 90%, the “Herbicidal activity SETVI” value is given as 90%, the “Herbicidal activity STEME” value amounted to 100% and the “Herbicidal activity VIOTR” value was 100%. In addition, in test [2] (setting [5]), the “Herbicidal activity ABUTH” value was determined as 100%, the “Herbicidal activity AMARE” value was determined as 100%, the “Herbicidal activity CYPES” value worked out at 100% and the “Herbicidal activity ECHCG” value was 100%. Besides, in test [2] (setting [5]), the “Herbicidal activity MATIN” value worked out at 100%, the “Herbicidal activity POLCO” value is recorded as 90%, the “Herbicidal activity STEME” value was 90% and the “Herbicidal activity VIOTR” value stood at 100%.
For `Cn1nnnc1NC(=O)c1ccc(C(F)(F)F)c2c1SCCS2` [Example 2-5, 5-(trifluoromethyl)-2,3-dihydro-1,4-benzodithiine-N-(1-methyltetrazol-5-yl)-8-carboxamide], in the test with SETVI (application rate 80, scored visually after about 3 weeks vs untreated controls, 100% = plants have died, 0% = like control plants), the “Herbicidal activity SETVI” value is given as 90%. In addition, in test [1] (setting [6]), the “Herbicidal activity ABUTH” value was determined as 90%, the “Herbicidal activity AMARE” value is recorded as 100%, the “Herbicidal activity ECHCG” value was 90% and the “Herbicidal activity STEME” value is 80%. Also, in test [1] (setting [6]), the “Herbicidal activity VIOTR” value is 80%. For the same compound, in test [2] (setting [7]), the “Herbicidal activity ABUTH” value is recorded as 100%, the “Herbicidal activity AMARE” value is on record as 100%, the “Herbicidal activity MATIN” value was 100% and the “Herbicidal activity STEME” value is given as 90%. For the same compound, the “Herbicidal activity VIOTR” value in test [2] (setting [7]) was determined as 100%. In addition, the “Herbicidal activity VERPE” value in test [2] (Veronica persica, application rate 80, scored visually after about 3 weeks) is 90%.
Take `Cn1nnnc1NC(=O)c1ccc(C(F)(F)F)c2c1OCCS2(=O)=O` [Example 2-20, 5-(trifluoromethyl)-2,3-dihydro-1,4-benzoxathiine-N-(1-methyltetrazol-5-yl)-8-carboxamide 4,4-dioxide]: the “herbicidal activity AVEFA” value in the test on AVEFA was found to be 100%. The “Herbicidal activity SETVI” value in the test with SETVI (setting [3]) is 100%. In addition, in test [1] (setting [4]), the “Herbicidal activity ABUTH” value is 100%, the “Herbicidal activity AMARE” value stood at 100%, the “herbicidal activity AVEFA” value is 80% and the “Herbicidal activity CYPES” value is recorded as 80%. In test [1] (setting [4]), the “Herbicidal activity ECHCG” value is recorded as 90%, the “Herbicidal activity PHBPU” value was found to be 90%, the “Herbicidal activity POLCO” value was 100% and the “Herbicidal activity SETVI” value is given as 90%. Further, in test [1] (setting [4]), the “Herbicidal activity STEME” value was 90%, the “Herbicidal activity VERPE” value is given as 100% and the “Herbicidal activity VIOTR” value came out at 100%. In addition, the “Herbicidal activity ALOMY” value in test [1] (Alopecurus myosuroides, application rate 80, rated visually after about 3 weeks) is 80%. In addition, the “Herbicidal activity LOLMU” value in test [1] (Lolium multiflorum, application rate 80, rated visually after about 3 weeks) came to 80%. The “Herbicidal activity MATIN” value in test [1] (Matricaria inodora, application rate 80, rated visually after about 3 weeks) is reported as 100%. In addition, in test [2] (setting [5]), the “Herbicidal activity ABUTH” value stood at 100%, the “Herbicidal activity AMARE” value was 100%, the “Herbicidal activity CYPES” value was 100% and the “Herbicidal activity ECHCG” value turned out to be 100%. Moreover, in test [2] (setting [5]), the “Herbicidal activity MATIN” value worked out at 100%, the “Herbicidal activity POLCO” value came out at 100%, the “Herbicidal activity STEME” value worked out at 90% and the “Herbicidal activity VIOTR” value amounted to 100%.
On to `CCn1nnnc1NC(=O)c1ccc(C(F)(F)F)c2c1OCCS2` [Example 3-13, 5-(trifluoromethyl)-2,3-dihydro-1,4-benzoxathiine-N-(1-ethyltetrazol-5-yl)-8-carboxamide], for which the “herbicidal activity AVEFA” value with AVEFA is reported as 80%. The “Herbicidal activity SETVI” value with SETVI (setting [3]) was 100%. Further, in test [1] (setting [4]), the “Herbicidal activity ABUTH” value is on record as 100%, the “Herbicidal activity AMARE” value is reported as 90%, the “herbicidal activity AVEFA” value was found to be 90% and the “Herbicidal activity ECHCG” value was 100%. In test [1] (setting [4]), the “Herbicidal activity PHBPU” value is recorded as 90%, the “Herbicidal activity POLCO” value amounted to 100%, the “Herbicidal activity SETVI” value came to 90% and the “Herbicidal activity STEME” value worked out at 100%. In addition, the “Herbicidal activity VIOTR” value in test [1] (setting [4]) is 100%. Further, in test [2] (setting [5]), the “Herbicidal activity ABUTH” value is 100%, the “Herbicidal activity AMARE” value is on record as 100%, the “Herbicidal activity CYPES” value came to 100% and the “Herbicidal activity ECHCG” value stood at 100%. Further, in test [2] (setting [5]), the “Herbicidal activity MATIN” value is given as 90%, the “Herbicidal activity POLCO” value amounted to 90%, the “Herbicidal activity STEME” value is on record as 100% and the “Herbicidal activity VIOTR” value was determined as 100%.
For `Cn1nnnc1NC(=O)c1ccc(C(F)(F)F)c2c1S(=O)(=O)CCS2(=O)=O` [Example 2-11], in test [1] (setting [4]), the “Herbicidal activity ECHCG” value is listed as 80%, the “Herbicidal activity VERPE” value is on record as 80% and the “Herbicidal activity VIOTR” value was 90%. In test [2] (setting [7]), the “Herbicidal activity ABUTH” value was 100%, the “Herbicidal activity AMARE” value was determined as 80% and the “Herbicidal activity MATIN” value is given as 80%.
In the case of `Cn1nnnc1NC(=O)c1ccc(C(F)(F)F)c2c1OCC(Cl)S2` (centres unmarked) [Example 2-41], the “Herbicidal activity AMARE” value in test [1] (setting [4]) is reported as 90%.
